In the NIST ThermoML archive (doi:10.1016/j.jct.2012.11.027):
± gives the expanded uncertainty stated by the source.

Tests used:
[1] = 101 kPa, Liquid, Linear variable-path acoustic interferometer
[2] = xn = mol fraction of the nth substance listed; conditions: 101 kPa, Liquid, Linear variable-path acoustic interferometer, x2 = 0

| SMILES | speed of sound ([1]; 288.15 K) [m/s] | speed of sound ([1]; 293.15 K) [m/s] | speed of sound ([1]; 298.15 K) [m/s] | speed of sound ([1]; 303.15 K) [m/s] | speed of sound ([1]; 308.15 K) [m/s] | speed of sound ([1]; 313.15 K) [m/s] | speed of sound ([1]; 318.15 K) [m/s] | speed of sound ([2]; 288.15 K) [m/s] | speed of sound ([2]; 293.15 K) [m/s] | speed of sound ([2]; 298.15 K) [m/s] | speed of sound ([2]; 303.15 K) [m/s] | speed of sound ([2]; 308.15 K) [m/s] | speed of sound ([2]; 313.15 K) [m/s] | speed of sound ([2]; 318.15 K) [m/s] |
| --- | --- | --- | --- | --- | --- | --- | --- | --- | --- | --- | --- | --- | --- | --- |
| CCCCO [butan-1-ol] | 1282.2 ± 1.9 | 1262.4 ± 1.9 | 1242.6 ± 1.8 | 1225.8 ± 1.8 | 1207.6 ± 1.8 | 1189.2 ± 1.8 | 1170 ± 1.8 | – | – | – | – | – | – | – |
| CCCCO [butan-1-ol] + C=CC(=O)OC | – | – | – | – | – | – | – | 1282.2 ± 1.9 | 1262.4 ± 1.9 | 1242.6 ± 1.8 | 1225.8 ± 1.8 | 1207.6 ± 1.8 | 1189.2 ± 1.8 | 1170 ± 1.8 |
| CCCCCCCCCCO [decan-1-ol] | 1410.6 ± 2 | 1393.6 ± 2 | 1377.3 ± 2 | 1359.8 ± 2 | 1345.7 ± 2 | 1326.7 ± 2 | 1312.1 ± 1.9 | – | – | – | – | – | – | – |
| CCCCCCCCCCO [decan-1-ol] + C=CC(=O)OC | – | – | – | – | – | – | – | 1410.6 ± 2 | 1393.6 ± 2 | 1377.3 ± 2 | 1359.8 ± 2 | 1345.7 ± 2 | 1326.7 ± 2 | 1312.1 ± 1.9 |
| CCCCCCO [hexan-1-ol] | 1339.2 ± 1.9 | 1321.2 ± 1.9 | 1306.9 ± 1.9 | 1289.5 ± 1.9 | 1275.7 ± 1.9 | 1256.3 ± 1.9 | 1237.5 ± 1.8 | – | – | – | – | – | – | – |
| CCCCCCO [hexan-1-ol] + C=CC(=O)OC | – | – | – | – | – | – | – | 1339.2 ± 1.9 | 1321.2 ± 1.9 | 1306.9 ± 1.9 | 1289.5 ± 1.9 | 1275.7 ± 1.9 | 1256.3 ± 1.9 | 1237.5 ± 1.8 |
| C=CC(=O)OC [methyl propenoate] | 1226.6 ± 1.8 | 1204.6 ± 1.8 | 1183.6 ± 1.8 | 1162.2 ± 1.7 | 1139.1 ± 1.7 | 1117.8 ± 1.7 | 1095.7 ± 1.7 | – | – | – | – | – | – | – |
| CCCCCCCCO [octan-1-ol] | 1390.2 ± 2 | 1371.5 ± 2 | 1352.4 ± 2 | 1333.1 ± 2 | 1315.7 ± 2 | 1298.9 ± 1.9 | 1282.9 ± 1.9 | – | – | – | – | – | – | – |
| CCCCCCCCO [octan-1-ol] + C=CC(=O)OC | – | – | – | – | – | – | – | 1390.2 ± 2 | 1371.5 ± 2 | 1352.4 ± 2 | 1333.1 ± 2 | 1315.7 ± 2 | 1298.9 ± 1.9 | 1282.9 ± 1.9 |
